The values below come from ChEMBL document CHEMBL3046570, “Synthesis, structure characterization, and biological evaluation of some new 1,2,3-benzotriazole derivatives” (2010).

Activity calls are given as the source filed them. No cut-off for these calls is given here.

One assay deals with Mycosphaerella arachidis. The experiment in a line: Fungicidal activity against Mycosphaerella arachidis assessed as inhibition of mycelium formation at 50 ug/ml after 72 hr (reference value: 0.005%). Type of assay: functional.
The species entered for a further assay is Homo sapiens. The experiment in a line: Cytotoxicity against Homo sapiens (human) HEP7402 cells assessed as decrease in cell viability at 0.05 to 0.2 mM after 24 to 72 hr by MTT assay. Type of assay: functional, cell-based. (Formazan colour is commonly taken as a measure of viable cells.)
Assay [1] deals with 4T1. The experiment in a line: Cytotoxicity against Mus musculus (mouse) 4T1 cells assessed as decrease in cell viability at 0.2 mM by MTT assay. The format is functional, cell-based. Particulars: TDE = time-dependent effect.
The subject of assay [2] is 4T1. The experiment in a line: Cytotoxicity against Mus musculus (mouse) 4T1 cells assessed as cell survival at 0.2 mM after 48 hr by MTT assay relative to control. As to conditions: 4T1, 48 h, read-out: Survival. The format is functional.
Assay [3] deals with 4T1. The experiment in a line: Cytotoxicity against Mus musculus (mouse) 4T1 cells assessed as cell survival at 0.2 mM after 24 hr by MTT assay relative to control. The format is functional. Particulars: 4T1, 24 h, read-out: Survival.
Assay [4] concerns 4T1. The experiment in a line: Cytotoxicity against Mus musculus (mouse) 4T1 cells assessed as decrease in cell viability after 24 to 72 hr by MTT assay. Type of assay: functional, cell-based.
The subject of assay [5] is 4T1. The experiment in a line: Cytotoxicity against Mus musculus (mouse) 4T1 cells assessed as cell survival at 0.2 mM after 72 hr by MTT assay relative to control. The format is functional. Particulars: 4T1, 72 h, read-out: Survival.

As usually defined, the inhibition is the drop in the measured response relative to a control, in per cent. In the case of `O=C(OC(Cn1nnc2ccccc21)C(=O)c1ccccc1)c1ccncc1` (stereo unspecified), in the assay with Mycosphaerella arachidis, the inhibition at 50 µg/mL was 13%.

On to `Cc1ccc(C(=O)C(Cn2nnc3ccccc32)OC(=O)c2cccnc2)cc1` (stereo unspecified), for which the outcome in the assay filed under Homo sapiens was Active. Besides, the inhibition at 50 µg/mL in the assay on Mycosphaerella arachidis worked out at 0%.

`O=C(OC(Cn1nnc2ccccc21)C(=O)c1ccccc1)c1cccnc1` (stereo unspecified): in the assay with Mycosphaerella arachidis, the inhibition at 50 µg/mL was 15%.

For `O=C(OC(Cn1nnc2ccccc21)C(=O)c1ccc(Cl)cc1Cl)c1cccnc1` (stereo unspecified), the inhibition at 50 µg/mL in the assay with Mycosphaerella arachidis is 31.3%.

As to `O=C(OC(Cn1nnc2ccccc21)C(=O)c1ccc(Cl)cc1)c1cccnc1` (stereo unspecified), the Activity result in the assay with 4T1 [1] is “tde”; in the assay with 4T1 [4], “Dose-dependent effect”. For the same compound, the viability at 200 µM in the assay with 4T1 [2] was found to be 45%; in the assay on 4T1 [3], 52.2%; in the assay on 4T1 [5] it was 40.3%. In the assay with Mycosphaerella arachidis, the inhibition at 50 µg/mL is 18.8%.
